Laboratory results as given in patent publication US5200329A, “Method of hydroxylating 3-[(4,7-dichlorobenzoxazol-2-yl)methyl]amino-5-ethyl-6-methyl-2-(1H)-pyr idinone by incubation with liver slices” (Merck & Co., Inc., priority 1992, dated 1993).

Tests used:
[1] = molecular target: T1, recombinant HIV reverse transcriptase (HIV RTR) (Human immunodeficiency virus type 1 group M subtype B, UniProt P04585); test: Reverse Transcriptase Assay (incorporation of tritiated deoxyguanosine monophosphate into acid-precipitable cDNA); type: biochemical; details: poly r(C).oligo d(G)12-18 and dGTP at about Km; 37° C., 45 minutes
T1 construct: recombinant HIV reverse transcriptase (HIV RTR)
Method: The assay measures the incorporation of tritiated deoxyguanosine monophosphate by recombinant HIV reverse transcriptase (HIV RTR) (or other RT) into acid-precipitable cDNA at the Km values of dGTP and poly r(C).oligo d(G)12-18.
Thirty uL of a reaction mixture containing equal volumes of: 500 mM Tris.HCl (pH 8.2), 300 mM MgCl2, 1200 mM KCl, 10 mM DTT, 400 μg/mL poly r(c).oligo d(G) [prepared by dissolving 1.5 mg (25 U) poly r(C).oligo d(G) in 1.5 ml sterile distilled H2 O and diluting to 400 μg/ml], 0.1 μCi/μl [^3 H] dGTP, 160 μM dGTP, was added to 10 μl sterile distilled H2 O, and 2.5 μl of potential inhibitor. An aliquot of 10 μL of 5 nM purified HIV RTR was added to initiate thereaction. The mixture was incubated at 37° C. for 45 minutes.
After incubation is complete, the tubes were cooled in ice for 5 minutes. Ice-cold 13% TCA containing 10 mM NaPPi (200 μl) are added and the mixture incubated on ice for 30 minutes. The precipitated cDNA is removed by filtration using presoaked glass filters [TCA, NaPPi ]. The precipitate is then washed with 1N HCl, 10 mM NaPPi.
The filter discs are then counted in a scintillation counter.
Under these conditions [dGTP] and poly r(C).oligo d(G)12-18 each are approximately equal to the appropriate Km value. Approximately 5-6,000 cpm of [^3 H] GMP are incorporated into acid-precipitable material. The RT reaction is concentration- and time-dependent. […] The calculated IC50 value for the compounds (Ia) and (Ib) of this incertion are as follows: […]

[2] = Incubation With Human Liver Slices (metabolite formation by HPLC); type: in vitro ADME; details: 2.85 μmol compound (II), 1.25 g wet weight liver slices (donor), Williams' Medium E, 37° C., four hours
Method: Compound (II) (2.85 μmol) was incubated with liver slices (1.25 g wet weight) from a human donor in 20 ml of Williams' Medium E at 37° C. under an atmosphere of 5% CO2 in air for four hours. The metabolites were extracted into ethyl acetate followed by evaporation of the solvent. The residue was reconstituted in methanol and compared on HPLC with an extract of rat liver slice incubation of compound (II). The HPLC effluents were monitored by a UV-diode array detector, and fractionated for liquid scintillation spectrophotometry.

| SMILES | IC50 [1] | formation of metabolites indicated by HPLC comparisons of UV and radioactivity profiles [2] |
| --- | --- | --- |
| Cc1[nH]c(=O)c(NCc2nc3c(Cl)ccc(Cl)c3o2)cc1C(C)O (racemic) [Ia, 3-[(4,7-dichlorobenzoxazol-2-yl)methylamino]-5-(1-hydroxyethyl)-6-methylpyridin-2(1H)-one] | 1050 nM | – |
| CCc1cc(NCc2nc3c(Cl)ccc(Cl)c3o2)c(O)nc1C [Compound II, 3-[(4,7-dichlorobenzoxazol-2-yl)-methyl]amino-5-ethyl-6-methyl-2(1H)-pyridinone] | 20 nM | formation of Ia and Ib in the human liver slices incubation |
| CCc1cc(NCc2nc3c(Cl)ccc(Cl)c3o2)c(=O)[nH]c1CO [Ib, 3-[(4,7-dichlorobenzoxazole-2-yl)methylamino]-5-ethyl-6-hydroxymethylpyridi n-2(1H)-one] | 14 nM | – |
